Measurements taken from patent US20150087627A1, “COMBINATION OF KINASE INHIBITORS AND USES THEREOF” (Intellikine LLC, priority 2011, published 2015).
Like-named read-outs stand apart in the source and are kept apart here.

How the values were obtained:
Type in all cases: biochemical
PI3K γ (p110γ) = target: T1, PI3K γ (p110γ) (Homo sapiens, UniProt P48736); test: PI 3-Kinase (human) HTRF assay, PI3K γ
T1 construct: purchased Upstate / Millipore Corporation
Description: Briefly, the assay is a time resolved FRET assay that indirectly measures PIP3 product formed by the activity of a PI3-K. The kinase reaction is performed in a microtiter plate (e.g., a 384 well microtiter plate). The total reaction volume is approximately 20 ul per well. In the first step, each well receives 2 ul of test compound in 20% dimethylsulphoxide resulting in a 2% DMSO final concentration. […] The plate is sealed and incubated for 15 minutes at room temperature. […] The plate is sealed and incubated for 1 hour at room temperature. The reaction is stopped by adding 5 ul of Stop Solution per well and then 5 ul of Detection Mix is added per well. The plate is sealed, incubated for 1 hour at room temperature, and then read on an appropriate plate reader. Data is analyzed and IC50s are generated using GraphPad Prism 5.

PI3K δ = target: T2, PI3K δ (Homo sapiens, UniProt O00329); test: PI 3-Kinase (human) HTRF assay, PI3K δ
T2 construct: purchased Upstate / Millipore Corporation
T2 sequence (O00329 whole entry): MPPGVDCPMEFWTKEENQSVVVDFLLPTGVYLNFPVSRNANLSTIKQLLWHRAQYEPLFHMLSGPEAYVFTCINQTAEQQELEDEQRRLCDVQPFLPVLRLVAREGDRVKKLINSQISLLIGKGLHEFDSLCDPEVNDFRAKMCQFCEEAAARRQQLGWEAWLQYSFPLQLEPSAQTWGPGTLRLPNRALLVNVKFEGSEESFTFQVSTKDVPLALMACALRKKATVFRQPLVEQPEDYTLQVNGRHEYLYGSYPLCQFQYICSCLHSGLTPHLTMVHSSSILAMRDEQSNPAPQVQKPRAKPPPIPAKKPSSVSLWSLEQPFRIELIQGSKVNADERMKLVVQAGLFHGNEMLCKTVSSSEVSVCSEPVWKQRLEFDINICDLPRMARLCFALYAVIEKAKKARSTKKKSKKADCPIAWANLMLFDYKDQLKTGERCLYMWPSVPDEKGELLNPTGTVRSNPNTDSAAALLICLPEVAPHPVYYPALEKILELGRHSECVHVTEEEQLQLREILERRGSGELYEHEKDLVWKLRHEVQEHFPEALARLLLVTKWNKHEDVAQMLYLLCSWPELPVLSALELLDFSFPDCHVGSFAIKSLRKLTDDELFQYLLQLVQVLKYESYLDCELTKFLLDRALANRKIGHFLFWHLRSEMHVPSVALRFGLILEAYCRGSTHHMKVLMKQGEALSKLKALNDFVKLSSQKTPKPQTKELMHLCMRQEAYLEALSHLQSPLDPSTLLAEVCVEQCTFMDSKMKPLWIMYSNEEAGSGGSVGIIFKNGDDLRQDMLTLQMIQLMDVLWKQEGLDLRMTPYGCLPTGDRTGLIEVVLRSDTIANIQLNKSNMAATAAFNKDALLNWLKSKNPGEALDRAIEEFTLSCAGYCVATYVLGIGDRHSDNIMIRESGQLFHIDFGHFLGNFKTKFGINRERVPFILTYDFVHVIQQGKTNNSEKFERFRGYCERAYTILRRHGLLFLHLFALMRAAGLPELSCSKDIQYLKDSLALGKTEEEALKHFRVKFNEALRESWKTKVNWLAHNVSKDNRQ
T2 sequence (P27986 whole entry partner): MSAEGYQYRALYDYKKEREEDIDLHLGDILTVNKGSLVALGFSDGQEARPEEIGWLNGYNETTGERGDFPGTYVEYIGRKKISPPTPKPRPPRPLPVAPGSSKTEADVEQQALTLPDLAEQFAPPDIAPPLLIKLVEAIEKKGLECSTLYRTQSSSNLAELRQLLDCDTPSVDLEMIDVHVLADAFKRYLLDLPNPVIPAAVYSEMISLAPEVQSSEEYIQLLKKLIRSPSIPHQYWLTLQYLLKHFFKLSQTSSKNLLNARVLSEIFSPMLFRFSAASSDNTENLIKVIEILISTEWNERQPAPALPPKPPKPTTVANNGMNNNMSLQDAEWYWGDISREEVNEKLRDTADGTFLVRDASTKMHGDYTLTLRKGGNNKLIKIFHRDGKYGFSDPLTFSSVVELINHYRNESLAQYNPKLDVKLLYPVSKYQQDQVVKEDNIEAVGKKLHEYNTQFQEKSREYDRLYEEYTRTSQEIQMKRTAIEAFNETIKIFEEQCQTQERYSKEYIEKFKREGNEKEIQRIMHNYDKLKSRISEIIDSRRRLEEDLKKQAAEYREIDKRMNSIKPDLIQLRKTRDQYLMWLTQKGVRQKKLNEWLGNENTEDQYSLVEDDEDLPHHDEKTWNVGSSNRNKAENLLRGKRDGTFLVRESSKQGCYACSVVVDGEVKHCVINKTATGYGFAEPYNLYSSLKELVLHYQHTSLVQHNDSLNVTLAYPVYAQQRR

PI3K α (p110α/p85α) = target: T3, PI3K α (p110α/p85α) (Homo sapiens, UniProt P42336); test: PI 3-Kinase (human) HTRF assay, PI3K α; conditions: read-out: PI3K α IC50
T3 construct: purchased Upstate / Millipore Corporation
T3 sequence (P42336 whole entry): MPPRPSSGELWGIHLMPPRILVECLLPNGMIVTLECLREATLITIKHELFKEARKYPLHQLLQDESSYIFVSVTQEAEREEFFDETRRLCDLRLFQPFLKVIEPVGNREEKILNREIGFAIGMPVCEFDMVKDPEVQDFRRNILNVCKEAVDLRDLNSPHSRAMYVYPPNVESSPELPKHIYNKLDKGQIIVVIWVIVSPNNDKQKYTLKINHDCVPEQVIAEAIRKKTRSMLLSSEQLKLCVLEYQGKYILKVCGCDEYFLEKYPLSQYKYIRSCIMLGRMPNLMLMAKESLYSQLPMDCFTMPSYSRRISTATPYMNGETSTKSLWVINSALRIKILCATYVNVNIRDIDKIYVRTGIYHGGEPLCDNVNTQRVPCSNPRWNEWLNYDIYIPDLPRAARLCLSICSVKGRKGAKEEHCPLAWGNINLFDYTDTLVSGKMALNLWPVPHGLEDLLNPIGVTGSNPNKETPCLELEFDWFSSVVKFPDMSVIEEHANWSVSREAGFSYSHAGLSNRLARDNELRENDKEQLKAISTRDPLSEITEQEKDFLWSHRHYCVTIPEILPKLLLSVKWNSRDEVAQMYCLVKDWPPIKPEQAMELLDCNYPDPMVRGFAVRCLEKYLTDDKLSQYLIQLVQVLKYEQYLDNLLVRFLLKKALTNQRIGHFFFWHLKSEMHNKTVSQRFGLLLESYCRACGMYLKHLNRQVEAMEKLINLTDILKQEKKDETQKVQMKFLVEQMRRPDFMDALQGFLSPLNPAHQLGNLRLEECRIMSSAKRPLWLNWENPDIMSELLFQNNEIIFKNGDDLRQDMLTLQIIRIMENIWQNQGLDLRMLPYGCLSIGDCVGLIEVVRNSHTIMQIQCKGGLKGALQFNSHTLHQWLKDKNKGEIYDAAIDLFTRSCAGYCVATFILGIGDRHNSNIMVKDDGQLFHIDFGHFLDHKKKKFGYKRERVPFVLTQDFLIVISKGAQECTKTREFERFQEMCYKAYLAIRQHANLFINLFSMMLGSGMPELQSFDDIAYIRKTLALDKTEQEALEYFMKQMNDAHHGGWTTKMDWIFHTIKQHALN
T3 sequence (P27986 whole entry partner): as the sequence (P27986 whole entry partner) above

PI3K β (p110β/p85α) = target: T4, PI3K β (p110β/p85α) (Homo sapiens, UniProt P42338); test: PI 3-Kinase (human) HTRF assay, PI3K β; conditions: read-out: PI3K β IC50
T4 construct: purchased Upstate / Millipore Corporation
T4 sequence (P42338 whole entry): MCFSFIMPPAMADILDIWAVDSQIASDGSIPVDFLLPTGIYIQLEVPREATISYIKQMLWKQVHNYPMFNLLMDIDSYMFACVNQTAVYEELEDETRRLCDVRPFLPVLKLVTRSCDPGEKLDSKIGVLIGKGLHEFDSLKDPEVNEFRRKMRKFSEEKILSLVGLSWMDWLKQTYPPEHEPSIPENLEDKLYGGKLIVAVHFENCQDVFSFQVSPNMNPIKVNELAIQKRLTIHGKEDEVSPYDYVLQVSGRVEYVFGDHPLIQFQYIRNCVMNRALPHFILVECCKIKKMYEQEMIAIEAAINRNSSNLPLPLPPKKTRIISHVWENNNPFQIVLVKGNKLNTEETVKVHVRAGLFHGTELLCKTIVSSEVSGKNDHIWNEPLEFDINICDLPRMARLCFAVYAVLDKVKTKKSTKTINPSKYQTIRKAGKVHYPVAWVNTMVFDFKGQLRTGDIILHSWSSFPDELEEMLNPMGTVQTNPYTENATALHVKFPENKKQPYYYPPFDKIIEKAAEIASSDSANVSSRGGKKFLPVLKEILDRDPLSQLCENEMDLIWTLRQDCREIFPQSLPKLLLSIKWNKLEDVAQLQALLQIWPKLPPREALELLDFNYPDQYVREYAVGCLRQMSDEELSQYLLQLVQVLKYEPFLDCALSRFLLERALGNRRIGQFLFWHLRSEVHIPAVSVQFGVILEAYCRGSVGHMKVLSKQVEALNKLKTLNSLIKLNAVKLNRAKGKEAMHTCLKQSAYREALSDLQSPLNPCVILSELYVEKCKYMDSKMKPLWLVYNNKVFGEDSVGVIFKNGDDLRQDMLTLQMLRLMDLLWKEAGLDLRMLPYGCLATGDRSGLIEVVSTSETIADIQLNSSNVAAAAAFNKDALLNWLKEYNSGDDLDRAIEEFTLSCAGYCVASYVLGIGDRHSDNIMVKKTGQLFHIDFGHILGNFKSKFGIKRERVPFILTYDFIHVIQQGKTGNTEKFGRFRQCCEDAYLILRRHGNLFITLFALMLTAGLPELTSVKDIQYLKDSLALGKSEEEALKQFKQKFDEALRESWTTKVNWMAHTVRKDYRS
T4 sequence (P27986 whole entry partner): as the sequence (P27986 whole entry partner) above

T1 sequence (P48736 whole entry): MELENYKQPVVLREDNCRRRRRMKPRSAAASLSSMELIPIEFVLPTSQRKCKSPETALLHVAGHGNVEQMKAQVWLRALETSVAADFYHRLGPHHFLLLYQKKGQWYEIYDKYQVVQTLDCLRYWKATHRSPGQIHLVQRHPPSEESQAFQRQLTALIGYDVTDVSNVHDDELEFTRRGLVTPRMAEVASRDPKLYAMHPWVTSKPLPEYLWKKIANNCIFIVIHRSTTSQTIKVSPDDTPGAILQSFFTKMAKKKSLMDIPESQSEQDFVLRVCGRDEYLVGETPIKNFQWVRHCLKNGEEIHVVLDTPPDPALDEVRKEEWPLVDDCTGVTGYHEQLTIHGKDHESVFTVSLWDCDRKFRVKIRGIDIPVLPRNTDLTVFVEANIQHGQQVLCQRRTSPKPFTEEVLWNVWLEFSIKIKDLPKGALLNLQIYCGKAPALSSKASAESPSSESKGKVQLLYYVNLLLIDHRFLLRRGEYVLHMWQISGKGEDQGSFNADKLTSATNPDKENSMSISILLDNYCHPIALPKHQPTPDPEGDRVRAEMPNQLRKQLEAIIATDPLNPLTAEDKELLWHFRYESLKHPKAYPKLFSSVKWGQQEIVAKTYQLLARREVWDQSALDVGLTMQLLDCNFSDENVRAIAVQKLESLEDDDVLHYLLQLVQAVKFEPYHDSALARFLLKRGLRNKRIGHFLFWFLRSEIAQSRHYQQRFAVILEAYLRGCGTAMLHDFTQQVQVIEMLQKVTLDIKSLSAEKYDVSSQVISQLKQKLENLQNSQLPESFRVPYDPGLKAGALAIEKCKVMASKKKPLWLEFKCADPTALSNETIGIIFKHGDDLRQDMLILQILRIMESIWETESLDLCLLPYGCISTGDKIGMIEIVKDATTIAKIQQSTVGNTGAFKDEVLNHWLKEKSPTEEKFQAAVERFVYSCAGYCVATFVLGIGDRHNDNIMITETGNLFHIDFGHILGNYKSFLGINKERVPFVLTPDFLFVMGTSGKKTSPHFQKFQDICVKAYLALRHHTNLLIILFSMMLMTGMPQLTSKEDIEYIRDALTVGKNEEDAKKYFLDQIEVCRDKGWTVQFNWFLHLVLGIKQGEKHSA

SMILES | IC50 (PI3K γ (p110γ); read-out: PI3K γ IC50) | IC50 (PI3K δ; read-out: PI3K δ IC50) | IC50 (PI3K α (p110α/p85α)) | IC50 (PI3K β (p110β/p85α)) | IC50 (PI3K γ (p110γ); PI3K γ IC50 (nM)) | IC50 (PI3K δ)
Nc1nc2ccc(-c3ccc4ncc(N5CCOCC5)nc4c3)cc2s1 [Compound 114] | < 1000 nM | > 10 µM | < 0.1 µM | > 10 µM |  | 
CN1CCN(c2cnc3ccc(-c4ccc5nc(N)sc5c4)cc3n2)CC1 [Compound 115] | < 10000 nM | > 10 µM | < 0.1 µM | < 0.1 µM |  | 
Nc1nc2cc(-c3ccc4ncc(N5CCOCC5)nc4c3)ccc2s1 [Compound 116] | < 1000 nM | > 10 µM | < 0.1 µM | < 1 µM |  | 
Nc1nc2ccc(-c3ccc4ncc(N5CCOCC5)nc4c3)cc2o1 [Compound 117] | < 1000 nM | > 10 µM | < 0.1 µM | < 1 µM |  | 
CNC(=O)CN1CCN(c2cnc3ccc(-c4ccc5oc(N)nc5c4)cc3n2)CC1 [Compound 120] | > 10000 nM | < 10 µM | < 0.1 µM | < 1 µM |  | 
Nc1nc2cc(-c3cn4c(C(=O)N5CCOCC5)cnc4cn3)ccc2o1 [Compound 122] | > 10000 nM | > 10 µM | > 10 µM | > 10 µM |  | 
CN1CCN(C(=O)c2cnc3cnc(-c4ccc5oc(N)nc5c4)cn23)CC1 [Compound 123] | > 10000 nM | > 10 µM | < 10 µM | > 10 µM |  | 
Nc1nc2ccc(-c3ccc4ncc(C(=O)N5CCOCC5)n4c3)cc2o1 [Compound 124] | < 1000 nM | > 10 µM | < 1 µM | < 1 µM |  | 
Nc1nc2ccc(-c3ccc4ncc(C(=O)N5CCOCC5)n4c3)cc2s1 [Compound 125] | < 1000 nM | < 10 µM | < 1 µM | > 10 µM |  | 
Nc1nc2cc(-c3ccc4ncc(C(=O)N5CCOCC5)n4c3)ccc2s1 [Compound 126] | < 1000 nM | > 10 µM | < 1 µM | < 10 µM |  | 
CN1CCN(c2cnc3ccc(-c4ccc5sc(N)nc5c4)cc3n2)CC1 [Compound 127] | < 10000 nM | > 10 µM | < 1 µM | < 0.1 µM |  | 
C[C@@H]1CN(c2cnc3ccc(-c4ccc5oc(N)nc5c4)cc3n2)C[C@H](C)O1 [Compound 132] | < 10000 nM | > 10 µM | < 1 µM | > 10 µM |  | 
CN1CCCN(c2cnc3ccc(-c4ccc5oc(N)nc5c4)cc3n2)CC1 [Compound 136] | < 10000 nM | > 10 µM | < 1 µM | < 1 µM |  | 
CN1CCCN(C(=O)c2cnc3ccc(-c4ccc5oc(N)nc5c4)cn23)CC1 [Compound 140] | > 10000 nM | > 10 µM | < 1 µM | < 10 µM |  | 
CCN1CCN(C(=O)c2cnc3ccc(-c4ccc5oc(N)nc5c4)cn23)CC1 [Compound 141] | < 10000 nM | > 10 µM | < 1 µM | > 10 µM |  | 
CC1CN(C(=O)c2cnc3ccc(-c4ccc5oc(N)nc5c4)cn23)CC(C)N1 (stereo not drawn) [Compound 142] | > 10000 nM | > 10 µM | < 10 µM | > 10 µM |  | 
CN1CCN(C(=O)c2cnc3ccc(-c4ccc5nc(N)sc5c4)cn23)CC1 [Compound 146] | > 10000 nM | > 10 µM | < 10 µM | < 10 µM |  | 
CC(=O)NC1CCN(C(=O)c2cnc3ccc(-c4ccc5oc(N)nc5c4)cn23)CC1 [Compound 147] | < 10000 nM | < 10 µM | < 1 µM | < 10 µM |  | 
Nc1nc2cc(-c3ccc4ncc(C(=O)N5CCN(CCO)CC5)n4c3)ccc2o1 [Compound 148] | < 10000 nM | > 10 µM | < 0.1 µM | > 10 µM |  | 
Nc1nc2cc(-c3ccc4ncc(-c5ccnc(N6CCOCC6)c5)nc4c3)ccc2o1 [Compound 150] | > 10000 nM | > 10 µM | < 1 µM | > 10 µM |  | 

SMILES | IC50 (PI3K γ (p110γ); read-out: PI3K γ IC50) | IC50 (PI3K δ; read-out: PI3K δ IC50) | IC50 (PI3K α (p110α/p85α)) | IC50 (PI3K β (p110β/p85α)) | IC50 (PI3K γ (p110γ); PI3K γ IC50 (nM)) | IC50 (PI3K δ)
CCN1CCN(c2cnc3ccc(-c4ccc5oc(N)nc5c4)cc3n2)CC1 [Compound 152] | < 1000 nM | < 10 µM | < 0.1 µM | < 0.1 µM |  | 
Nc1nc2cc(-c3ccc4ncc(N5CCN(CC6CC6)CC5)nc4c3)ccc2o1 [Compound 153] | < 1000 nM | < 1 µM | < 0.1 µM | < 0.1 µM |  | 
CNC(=O)N1CCN(c2cnc3ccc(-c4ccc5oc(N)nc5c4)cc3n2)CC1 [Compound 154] | < 100 nM | < 10 µM | < 0.1 µM | < 1 µM |  | 
CN1CCC(N(C)c2ncnc3ccc(-c4ccc5oc(N)nc5c4)cc23)CC1 [Compound 155] |  |  | < 0.1 µM | < 0.1 µM | < 100 nM | < 1 µM
CN1CCN(C(=O)c2cnc3ccc(-c4ccc5oc(N)nc5c4)cc3n2)CC1 [Compound 157] | > 10000 nM | > 10 µM | < 10 µM | > 10 µM |  | 
Nc1nc2cc(-c3ccc4ncc(C(=O)N5CCOCC5)nc4c3)ccc2o1 [Compound 158] | > 10000 nM | > 10 µM | < 10 µM | > 10 µM |  | 
CN1CCC(NC(=O)c2cnc3ccc(-c4ccc5oc(N)nc5c4)cn23)CC1 [Compound 159] | < 1000 nM | < 0.1 µM | < 0.1 µM | < 1 µM |  | 
CC(C)N1CCN(C(=O)c2cnc3ccc(-c4ccc5oc(N)nc5c4)cn23)CC1 [Compound 160] | > 10000 nM | > 10 µM | < 0.1 µM | < 10 µM |  | 
Nc1nc2cc(-c3ccc4ncc(C(=O)N5CCC(O)CC5)n4c3)ccc2o1 [Compound 162] | < 10000 nM | > 10 µM | < 1 µM | > 10 µM |  | 
Nc1nc2cc(-c3ccc4ncc(C(=O)N5CCC(N6CCOCC6)CC5)n4c3)ccc2o1 [Compound 163] | < 10000 nM | < 10 µM | < 1 µM | < 10 µM |  | 
CC1CN(C(=O)c2cnc3ccc(-c4ccc5oc(N)nc5c4)cn23)CCN1 (stereo not drawn) [Compound 164] | > 10000 nM | > 10 µM | < 1 µM | < 1 µM |  | 
CN1CCC(N(C)C(=O)c2cnc3ccc(-c4ccc5oc(N)nc5c4)cn23)CC1 [Compound 165] | > 10000 nM | < 10 µM | < 1 µM | < 10 µM |  | 
CN(CCN1CCOCC1)c1cnc2ccc(-c3ccc4oc(N)nc4c3)cc2n1 [Compound 166] | < 10000 nM | > 10 µM | < 1 µM | < 10 µM |  | 
Nc1nc2cc(-c3ccc4ncc(-c5ccc(N6CCOCC6)nc5)nc4c3)ccc2o1 [Compound 167] | > 10000 nM | > 10 µM | < 10 µM | > 10 µM |  | 
Nc1nc2cc(-c3ccc4ncc(N5CCC(N)CC5)nc4c3)ccc2o1 [Compound 168] | > 10000 nM | < 10 µM | < 0.1 µM | < 1 µM |  | 
CN(C)C1CCN(c2cnc3ccc(-c4ccc5oc(N)nc5c4)cc3n2)CC1 [Compound 172] | < 1000 nM | < 0.1 µM | < 0.1 µM | < 0.1 µM |  | 
Cc1nccn1-c1cnc2ccc(-c3ccc4oc(N)nc4c3)cc2n1 [Compound 174] | < 100 nM | < 10 µM | < 0.1 µM | < 1 µM |  | 
Nc1nc2cc(-c3ccc4ncc(N5CCCC5)nc4c3)ccc2o1 [Compound 176] | < 100 nM | < 1 µM | < 0.1 µM | < 1 µM |  | 
Nc1nc2cc(-c3ccc4ncc(-c5ccccc5)nc4c3)ccc2o1 [Compound 180] | > 10000 nM | > 10 µM | < 1 µM | > 10 µM |  | 
